# Reference: patent US12679877B2, “NPRA agonists, compositions, and uses thereof” (PharmaIn Corporation, priority 2017, dated 2026)
# Marks after values point to notes of the source that are not given here. No end group written: not given here. *: point of attachment. CH3(CH2)22CO = C24 acyl (CH3(CH2)22CO-), CCCCCCCCCCCCCCCCCCCCCCCC(=O)*; Docosanoyl = CCCCCCCCCCCCCCCCCCCCCC(=O)*
# How the values were obtained:
# [1] = Plasma ANP level by ELISA after s.c. ANP in the same study; type: in vivo, Balb/c mice; conditions: ANP 12 mg/Kg s.c., injection at 0 hour and 6 hours; average of all groups with same dose; value (SEM)
# Procedure: An investigation was carried out to determine whether prolonged presence of ANP in the blood would have a sustained pharmacodynamic effect, reflected by elevation of cGMP blood concentration, and to determine whether that elevation would be proportional to the level of ANP. The level of blood cGMP relative to ANP was determined. […] This problem had not been documented in literature and there was no reason to solve this previously unknown problem. […] For this study, 4 groups of Balb/c mice (n=3/group; female, 5-6 weeks old; 18-25 g) were used and the cGMP levels at various time points after ANP administration with and without 2nd ANP administration were evaluated. […] Two subsequent s.c. (subcutaneous) administrations of the ANP formulated in a polymeric excipient (to increase in vivo stability) were evaluated. […] The plasma samples were analyzed for cGMP using the cGMP ELISA kit (GE Healthcare Life Sciences, Marlborough, MA) according to manufacturer's protocol. […] The level of ANP associated with cGMP was also measured to further confirm receptor depletion was the result of lack of responsiveness if any. The associated level of ANP was measured using an ELISA assay kit (GE Healthcare Life Sciences, Marlborough, MA) according to manufacturer's protocol. […]
# [2] = system: natriuretic peptide receptors (NPRA or NPRB); test: 2-point blood cGMP evaluation (2 and 6 hours) after 15 mg/Kg s.c., cGMP Direct Biotrak EIA; type: in vivo, CD-1 mice; conditions: for In vivo blood cGMP minus baseline, 2 hour (potency) / In vivo blood cGMP minus baseline, 6 hour (receptor depletion): 15 mg/Kg s.c. in mice (n=3), minus baseline 30 pmol/ml (n=12); for In vivo blood cGMP minus baseline, 2 hour (potency): 2 hours after dosing; for In vivo blood cGMP minus baseline, 6 hour (receptor depletion): 6 hours after dosing; for activity / potency compared to ANP, in words (2 hour data in Table 2): 15 mg/Kg s.c. in mice, blood cGMP
# Procedure: Various derivatives of ANP were made and screened for increase in vivo potency while limiting the apparent receptor depletion effects (or perhaps can act on another cGMP enhancing receptors) by looking at the level of blood cGMP at specific time points. […] Various derivatives were made and tested in vivo to determine the level of blood cGMP at 2 hours and 6 hours after subcutaneous administration of 15 mg/Kg in mice (which was allometrically equivalent to human dose of 1.5 mg/Kg) with the goal of finding derivatives that were therapeutically useful for increasing blood cGMP.
# For 2-point cGMP evaluation of various derivatives, test samples were dissolved in water (Lonza, Wakersville, MD) before being lyophilized. Prior to use, the lyophilized test sample was dissolved in saline then 15 mg/Kg was injected subcutaneously into female CD-1 mice 6-8 weeks (n=3). Blood samples were collected at 2 and 6 hours with K2EDTA blood collection tube. The collection tube was then centrifuged at 13,000 rpm for 10 minutes at 4° C. to separate plasma. The plasma was analyzed using the cGMP Direct Biotrak EIA (GE Healthcare Life Sciences, Marlborough, MA). Note that by using allometric scaling at exponent of 0.7 [dose in other species=mice dose/((mouse weight/weight of average other species)^0.7)], the 15 mg/Kg in mice is equivalent to about 7.5 mg/Kg rat dose, about 2.5 mg/Kg dog dose, and 1.5 mg/Kg human dose. For the purpose the present disclosure, the 15 mg/Kg in mice as presented in the relevant data examples, should be understood as equivalent to about 7.5 mg/Kg rat dose, which is equivalent to about 2.5 mg/Kg dog dose, which is equivalent to about 1.5 mg/Kg human dose. Because the mice cGMP response to 15 mg/Kg dose of the newly discovered derivatives (see Table 2) was quite high, it would be prudent to use daily doses that are lower than 15 mg/Kg for mice, 7.5 mg/Kg for rat, 2.5 mg/Kg for dog, and 1.5 mg/Kg for human since any higher dose may result in too much increase in cGMP that can result in too much or even dangerous drop in blood pressure unless formulated in a very slow release delivery system. In fact based on cGMP response it was more preferable to use daily doses that are lower than […], 1.5 mg/Kg for rat, 0.5 mg/Kg for dog, and 0.3 mg/Kg for human. Additionally, the level of blood cGMP is preferably between 1.5 to 3-times of the normal baseline level. The blood or plasma cGMP normal baseline level was about 20-50 pmol/ml but could vary slightly depending on the assay kit used to measure the level.
Compound,2 hrs. ANP level [1],"In vivo blood cGMP minus baseline, 2 hour (potency) [2]","In vivo blood cGMP minus baseline, 6 hour (receptor depletion) [2]","activity / potency compared to ANP, in words (2 hour data in Table 2) [2]"
CC[C@H](C)[C@@H]1NC(=O)[C@H](CCCNC(=N)N)NC(=O)[C@H](CC(=O)O)NC(=O)[C@H](CCSC)NC(=O)[C@H](CCCNC(=N)N)NC(=O)CNC(=O)CNC(=O)[C@H](Cc2ccccc2)NC(=O)[C@@H](NC(=O)[C@H](CO)NC(=O)[C@H](CO)NC(=O)[C@H](CCCNC(=N)N)NC(=O)[C@H](CCCNC(=N)N)NC(=O)[C@H](CC(C)C)NC(=O)[C@@H](N)CO)CSSC[C@@H](C(=O)N[C@@H](CC(N)=O)C(=O)N[C@@H](CO)C(=O)N[C@@H](Cc2ccccc2)C(=O)N[C@@H](CCCNC(=N)N)C(=O)N[C@@H](Cc2ccc(O)cc2)C(=O)O)NC(=O)CNC(=O)[C@H](CC(C)C)NC(=O)CNC(=O)[C@H](CO)NC(=O)[C@H](CCC(N)=O)NC(=O)[C@H](C)NC(=O)CNC1=O [SEQ ID NO. 1],67.24 (6.92)* ng/ml,–,–,–
CH3(CH2)20COKKKKGGGSLRRSSCFGGRMDRIGAQSGLGCNSFRY (Docosanoyl-KKKKGGGSLRRSSCFGGRMDRIGAQSGLGCNSFRY; not fully specified (bridges); printed as CH3(CH2)20COKKKKGGGSLRRSSCFGGRMDRIGAQSGLGCNSFRY; cysteine pairing not given here; listed as Homo Sapiens) [SEQ ID NO. 94],–,263.8 nM,255.4 pmol/mL,–
CH3(CH2)22COKKKKGGGGLSKGCFGLKLDRIGSMSGLGC ({CH3(CH2)22CO}-KKKKGGGGLSKGCFGLKLDRIGSMSGLGC; not fully specified (bridges); printed as CH3(CH2)22COKKKKGGGGLSKGCFGLKLDRIGSMSGLGC; cysteine pairing not given here; listed as Homo Sapiens) [SEQ ID NO. 122],–,251.92 nM,209.24 pmol/mL,–
CH3(CH2)22COKKKKGGGSLRRSSCFGGRMDRIGAQSGLGCNSFRY ({CH3(CH2)22CO}-KKKKGGGSLRRSSCFGGRMDRIGAQSGLGCNSFRY; not fully specified (bridges); printed as CH3(CH2)22COKKKKGGGSLRRSSCFGGRMDRIGAQSGLGCNSFRY; cysteine pairing not given here; listed as Homo Sapiens) [SEQ ID NO. 95],–,260.8 nM,245.6 pmol/mL,–
GGGGLSKGCFGLKLDRIGSMSGLGC (listed as Homo Sapiens) [SEQ ID NO. 60],–,49.98 nM,16.85 pmol/mL,no loss activity compared to ANP
GGGSLRRSSCFGGRMDRIGAQSGLGCNSFRY (listed as Homo Sapiens) [SEQ ID NO. 4],–,41.66 nM,-11.79 pmol/mL,–
GGLSKGCFGLKLDRIGSMSGLGC (listed as Homo Sapiens) [SEQ ID NO. 58],–,27.09 nM,5.10 pmol/mL,no loss activity compared to ANP
GGSLRRSSCFGGRMDRIGAQSGLGCNSFRY (listed as Homo Sapiens) [SEQ ID NO. 3],–,46.79 nM,0.16 pmol/mL,–
"GLSKGCFGLKLDRIGSMSGLGC [SEQ ID NO. 57, reference compound]",–,93.75 nM,24.55 pmol/mL,–
GSLRRSSCFGGRMDRIGAQSGLGCNSFRY (listed as Homo Sapiens) [SEQ ID NO. 2],–,44.08 nM,-13.85 pmol/mL,–
KGGGSLRRSSCFGGRMDRIGAQSGLGCNSFRY (listed as Homo Sapiens) [SEQ ID NO. 5],–,59.96 nM,44.34 pmol/mL,–
KKGGGSLRRSSCFGGRMDRIGAQSGLGCNSFRY (listed as Homo Sapiens) [SEQ ID NO. 6],–,28.6 nM,-4.81 pmol/mL,–
KKKGGGSLRRSSCFGGRMDRIGAQSGLGCNSFRY (listed as Homo Sapiens) [SEQ ID NO. 7],–,23.40 nM,-1.19 pmol/mL,–
KKKKGGGSLRRSSCFGGRMDRIGAQSGLGCNSFRY (listed as Homo Sapiens) [SEQ ID NO. 8],–,53.00 nM,15.25 pmol/mL,–
